{"source": "patent US6706663B2", "about": "“Herbicidal 3-heterocyclic substituted benzisothiazole and benzisoxazole compounds” (Wyeth, priority 2000, dated 2004)", "key": {"[1]": {"system": "ABUTH (Abutilon theophrasti)", "experiment": "Postemergence herbicidal evaluation", "format": "in vivo, Medic.", "method_in_brief": "(§1)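 Seedlings grown for about two weeks were sprayed postemergence and then kept under standard greenhouse care. Injury was rated visually 4–5 weeks after treatment on a 0–9 scale against untreated controls, and ratings from repeat tests were averaged.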"}, "[2]": {"system": "AMBEL (Ambrosia artemisifolia)", "experiment": "Postemergence herbicidal evaluation", "format": "in vivo, L.", "method_in_brief": "as §1"}, "[3]": {"system": "CASOB (Cassia obtusifolia)", "experiment": "Postemergence herbicidal evaluation", "format": "in vivo, L.", "method_in_brief": "as §1"}, "[4]": {"system": "CHEAL (Chenopodium album)", "experiment": "Postemergence herbicidal evaluation", "format": "in vivo, L.", "method_in_brief": "as §1"}, "[5]": {"system": "IPOHE (Ipomoea hederacea)", "experiment": "Postemergence herbicidal evaluation", "format": "in vivo, (L.) Jacq.", "method_in_brief": "as §1"}, "[6]": {"system": "GLXMAW (Soybean, Williams)", "experiment": "Postemergence herbicidal evaluation", "format": "in vivo, Glycine max, (L.) Merr. cv Williams", "method_in_brief": "as §1"}, "ORYSAT (Rice, Tebonnet) [7]": {"system": "ORYSAT (Rice, Tebonnet)", "experiment": "Postemergence herbicidal evaluation", "format": "in vivo, Oryza sativa, (L.) Tebonnet", "method_in_brief": "as §1"}, "[8]": {"system": "ABUTH (Abutilon theophrasti)", "experiment": "Preemergence herbicidal evaluation", "format": "in vivo, Medic.", "settings": "preemergence, rated 4-5 weeks after treatment"}, "[9]": {"system": "AMBEL (Ambrosia artemisifolia)", "experiment": "Preemergence herbicidal evaluation", "format": "in vivo, L.", "settings": "preemergence, rated 4-5 weeks after treatment", "method_in_brief": "(§2)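 Test compound is applied in aqueous acetone to cups just after seeding. Cups are watered and maintained on greenhouse benches. Each cup is scored 0–9 by eye relative to a control after four to five weeks.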"}, "[10]": {"system": "CASOB (Cassia obtusifolia)", "experiment": "Preemergence herbicidal evaluation", "format": "in vivo, L.", "settings": "preemergence, rated 4-5 weeks after treatment", "method_in_brief": "as §2"}, "[11]": {"system": "CHEAL (Chenopodium album)", "experiment": "Preemergence herbicidal evaluation", "format": "in vivo, L.", "settings": "preemergence, rated 4-5 weeks after treatment", "method_in_brief": "as §2"}, "[12]": {"system": "IPOHE (Ipomoea hederacea)", "experiment": "Preemergence herbicidal evaluation", "format": "in vivo, (L.) Jacq.", "settings": "preemergence, rated 4-5 weeks after treatment"}, "[13]": {"system": "ECHCG (Echinochloa crus-galli)", "experiment": "Preemergence herbicidal evaluation", "format": "in vivo, (L.) Beau", "settings": "preemergence, rated 4-5 weeks after treatment", "method_in_brief": "as §2"}, "SETVI (Setaria viridis)": {"system": "SETVI (Setaria viridis)", "experiment": "Preemergence herbicidal evaluation", "format": "in vivo, (L.) Beau", "settings": "preemergence, rated 4-5 weeks after treatment", "method_in_brief": "as §2"}, "[14]": {"system": "GLXMAW (Soybean, Williams)", "experiment": "Preemergence herbicidal evaluation", "format": "in vivo, Glycine max, (L.) Merr. cv Williams", "settings": "preemergence, rated 4-5 weeks after treatment"}, "[15]": {"system": "TRZAWR (Wheat, Winter, cv Riband)", "experiment": "Preemergence herbicidal evaluation", "format": "in vivo, Triticum aestivum", "settings": "preemergence, rated 4-5 weeks after treatment", "method_in_brief": "as §2"}, "ZEAMX (Corn, Field)": {"system": "ZEAMX (Corn, Field)", "experiment": "Preemergence herbicidal evaluation", "format": "in vivo, Zea mays, L.", "settings": "preemergence, rated 4-5 weeks after treatment"}, "CYPIR (Cyperus iria)": {"system": "CYPIR (Cyperus iria)", "experiment": "Flooded paddy, preemergence weed control", "format": "in vivo", "settings": "rated 3-4 weeks after treatment, 0-9 rating scale", "method_in_brief": "(§3)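 Preemergence, flooded: propagules planted at 0.5 cm depth in silt loam, water level maintained at 1.5 to 3 cm over soil, containers kept on greenhouse benches. Activity scored 0-9 by eye relative to a control plant.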"}, "[16]": {"system": "MOOVA (Monochoria vaginalis)", "experiment": "Flooded paddy, preemergence weed control", "format": "in vivo, Presl.", "settings": "rated 3-4 weeks after treatment, 0-9 rating scale", "method_in_brief": "as §3"}, "ORYSAT (Rice, Tebonnet) [17]": {"system": "ORYSAT (Rice, Tebonnet)", "experiment": "Flooded paddy, post-transplant rice tolerance", "format": "in vivo, Oryza sativa, (L.) Tebonnet", "settings": "flooded paddy, post-transplant rice, rated 3-4 weeks after treatment, 0-9 rating scale", "method_in_brief": "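Seedlings aged ten days are transplanted in pairs into undrained pots of silt loam, which are then flooded to a depth of 1.5 to 3 cm. After herbicide application the pots are kept in a greenhouse with the flood maintained. Plants are rated 0-9 by visual comparison with controls.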"}}, "data": [{"molecule": "Cn1c(C(F)(F)F)cc(=O)n(-c2ccc3snc(C4OCCCO4)c3c2)c1=O", "note": "[Compound 28, 3-(3-m-dioxan-2-yl-1,2-benzisothiazol-5-yl)-1-methyl-6-(trifluoromethyl)uracil]", "values": [{"measurement": "Postemergence herbicidal rating, ABUTH", "setting": "[1]; rate 0.0320 kg/ha", "result": 9.0}, {"measurement": "Postemergence herbicidal rating, ABUTH", "setting": "[1]; rate 0.0620 kg/ha", "result": 9.0}, {"measurement": "Postemergence herbicidal rating, AMBEL", "setting": "[2]; rate 0.0320 kg/ha", "result": 9.0}, {"measurement": "Postemergence herbicidal rating, AMBEL", "setting": "[2]; rate 0.0620 kg/ha", "result": 9.0}, {"measurement": "Postemergence herbicidal rating, CASOB", "setting": "[3]; rate 0.0320 kg/ha", "result": 8.0}, {"measurement": "Postemergence herbicidal rating, CASOB", "setting": "[3]; rate 0.0620 kg/ha", "result": 9.0}, {"measurement": "Postemergence herbicidal rating, CHEAL", "setting": "[4]; rate 0.0320 kg/ha", "result": 9.0}, {"measurement": "Postemergence herbicidal rating, CHEAL", "setting": "[4]; rate 0.0620 kg/ha", "result": 9.0}, {"measurement": "Postemergence herbicidal rating, IPOHE", "setting": "[5]; rate 0.0320 kg/ha", "result": 8.3}, {"measurement": "Postemergence herbicidal rating, IPOHE", "setting": "[5]; rate 0.0620 kg/ha", "result": 9.0}, {"measurement": "Postemergence herbicidal rating, GLXMAW", "setting": "[6]; rate 0.0320 kg/ha", "result": 9.0}, {"measurement": "Postemergence herbicidal rating, GLXMAW", "setting": "[6]; rate 0.0620 kg/ha", "result": 9.0}, {"measurement": "Postemergence herbicidal rating, ORYSAT", "setting": "ORYSAT (Rice, Tebonnet) [7]; rate 0.0320 kg/ha", "result": 5.3}, {"measurement": "Postemergence herbicidal rating, ORYSAT", "setting": "ORYSAT (Rice, Tebonnet) [7]; rate 0.0620 kg/ha", "result": 6.5}, {"measurement": "ABUTH preemergence herbicidal rating", "setting": "[8]; Rate 0.0620 kg/ha", "result": 9.0}, {"measurement": "ABUTH preemergence herbicidal rating", "setting": "[8]; Rate 0.1250 kg/ha", "result": 9.0}, {"measurement": "ABUTH preemergence herbicidal rating", "setting": "[8]; Rate 0.2500 kg/ha", "result": 9.0}, {"measurement": "AMBEL preemergence herbicidal rating", "setting": "[9]; Rate 0.0620 kg/ha", "result": 9.0}, {"measurement": "AMBEL preemergence herbicidal rating", "setting": "[9]; Rate 0.1250 kg/ha", "result": 9.0}, {"measurement": "AMBEL preemergence herbicidal rating", "setting": "[9]; Rate 0.2500 kg/ha", "result": 9.0}, {"measurement": "CASOB preemergence herbicidal rating", "setting": "[10]; Rate 0.0620 kg/ha", "result": 9.0}, {"measurement": "CASOB preemergence herbicidal rating", "setting": "[10]; Rate 0.1250 kg/ha", "result": 9.0}, {"measurement": "CASOB preemergence herbicidal rating", "setting": "[10]; Rate 0.2500 kg/ha", "result": 9.0}, {"measurement": "CHEAL preemergence herbicidal rating", "setting": "[11]; Rate 0.0620 kg/ha", "result": 9.0}, {"measurement": "CHEAL preemergence herbicidal rating", "setting": "[11]; Rate 0.1250 kg/ha", "result": 9.0}, {"measurement": "CHEAL preemergence herbicidal rating", "setting": "[11]; Rate 0.2500 kg/ha", "result": 9.0}, {"measurement": "IPOHE preemergence herbicidal rating", "setting": "[12]; Rate 0.0620 kg/ha", "result": 9.0}, {"measurement": "IPOHE preemergence herbicidal rating", "setting": "[12]; Rate 0.1250 kg/ha", "result": 9.0}, {"measurement": "IPOHE preemergence herbicidal rating", "setting": "[12]; Rate 0.2500 kg/ha", "result": 9.0}, {"measurement": "ECHCG preemergence herbicidal rating", "setting": "[13]; Rate 0.0620 kg/ha", "result": 9.0}, {"measurement": "ECHCG preemergence herbicidal rating", "setting": "[13]; Rate 0.1250 kg/ha", "result": 9.0}, {"measurement": "ECHCG preemergence herbicidal rating", "setting": "[13]; Rate 0.2500 kg/ha", "result": 9.0}, {"measurement": "SETVI preemergence herbicidal rating", "setting": "SETVI (Setaria viridis); Rate 0.0620 kg/ha", "result": 9.0}, {"measurement": "SETVI preemergence herbicidal rating", "setting": "SETVI (Setaria viridis); Rate 0.1250 kg/ha", "result": 9.0}, {"measurement": "SETVI preemergence herbicidal rating", "setting": "SETVI (Setaria viridis); Rate 0.2500 kg/ha", "result": 9.0}, {"measurement": "GLXMAW preemergence herbicidal rating", "setting": "[14]; Rate 0.0620 kg/ha", "result": 8.0}, {"measurement": "GLXMAW preemergence herbicidal rating", "setting": "[14]; Rate 0.1250 kg/ha", "result": 9.0}, {"measurement": "GLXMAW preemergence herbicidal rating", "setting": "[14]; Rate 0.2500 kg/ha", "result": 9.0}, {"measurement": "TRZAWR preemergence herbicidal rating", "setting": "[15]; Rate 0.0620 kg/ha", "result": 9.0}, {"measurement": "TRZAWR preemergence herbicidal rating", "setting": "[15]; Rate 0.1250 kg/ha", "result": 9.0}, {"measurement": "TRZAWR preemergence herbicidal rating", "setting": "[15]; Rate 0.2500 kg/ha", "result": 9.0}, {"measurement": "ZEAMX preemergence herbicidal rating", "setting": "ZEAMX (Corn, Field); Rate 0.0620 kg/ha", "result": 8.0}, {"measurement": "ZEAMX preemergence herbicidal rating", "setting": "ZEAMX (Corn, Field); Rate 0.1250 kg/ha", "result": 9.0}, {"measurement": "ZEAMX preemergence herbicidal rating", "setting": "ZEAMX (Corn, Field); Rate 0.2500 kg/ha", "result": 9.0}, {"measurement": "herbicidal rating, CYPIR", "setting": "CYPIR (Cyperus iria); rate 0.0080 kg/ha", "result": 8.0}, {"measurement": "herbicidal rating, CYPIR", "setting": "CYPIR (Cyperus iria); rate 0.0320 kg/ha", "result": 9.0}, {"measurement": "herbicidal rating, CYPIR", "setting": "CYPIR (Cyperus iria); rate 0.1250 kg/ha", "result": 9.0}, {"measurement": "herbicidal rating, MOOVA", "setting": "[16]; rate 0.0080 kg/ha", "result": 9.0}, {"measurement": "herbicidal rating, MOOVA", "setting": "[16]; rate 0.0320 kg/ha", "result": 9.0}, {"measurement": "herbicidal rating, MOOVA", "setting": "[16]; rate 0.1250 kg/ha", "result": 9.0}, {"measurement": "herbicidal rating, ORYSAT (rice tolerance)", "setting": "ORYSAT (Rice, Tebonnet) [17]; rate 0.0080 kg/ha", "result": 7.0}, {"measurement": "herbicidal rating, ORYSAT (rice tolerance)", "setting": "ORYSAT (Rice, Tebonnet) [17]; rate 0.0320 kg/ha", "result": 9.0}, {"measurement": "herbicidal rating, ORYSAT (rice tolerance)", "setting": "ORYSAT (Rice, Tebonnet) [17]; rate 0.1250 kg/ha", "result": 9.0}]}]}
